Experimental data taken from patent US10208000B2, “Eis inhibitors” (priority 2015, dated 2019).

tested on: K204 Mtb; assay type: cell-based, Mycobacterium tuberculosis

| Structure (SMILES) | overcoming resistance to KAN in Mtb K204 (in words) |
| --- | --- |
| CC1=C(c2ccc(C)cc2)S(=O)(=O)N=C1NCCN1CCOCC1 [Compound 35e] | did not overcome resistance to KAN |
| CCN1CCN(CCNC2=NS(=O)(=O)C(c3ccc(OC)cc3)=C2C)CC1 [Compound 37d] | did not overcome resistance to KAN |
| CC1=C(c2ccc(F)cc2)S(=O)(=O)N=C1NCc1ccco1 [Compound 87b] | did not overcome resistance to KAN |
| CC1=C(c2ccc(F)cc2)S(=O)(=O)N=C1NCc1ccccc1 [Compound 89b] | did not overcome resistance to KAN |
| CC1=C(c2ccc(C)c(C)c2)S(=O)(=O)N=C1NCC(=O)NCc1ccc2c(c1)OCO2 [Compound 115i] | did not overcome resistance to KAN |
| CCCNC1=NS(=O)(=O)C(c2ccc(F)cc2)=C1C [Compound 139b] | did not overcome resistance to KAN |
| CCCNC1=NS(=O)(=O)C(c2ccc(C)cc2)=C1C [Compound 139e] | did not overcome resistance to KAN |
| CCCNC1=NS(=O)(=O)C(c2ccc(C)c(C)c2)=C1C [Compound 139i] | did not overcome resistance to KAN |
